Inconclusive results and toxic doses are left out. Rule as the data show it: active = T/C of 150% or more; inactive = T/C below 125%.
Tested on: L1210 leukemia ip in BDF1 mice, survival T/C
Experiment: NCI In Vivo Anticancer Drug Screen. Data for tumor model L1210 Leukemia (intraperitoneal) in B6D2F1 (BDF1) mice
Details: endpoint: mean survival time, higher = longer survival
Procedure, shortened: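 Each compound was tested against a transplantable tumor grown in mice. The endpoint was survival, with treated animals benchmarked against vehicle controls as a simple ratio.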

[1] = dose: 100.0 mg/kg/injection, schedule: Q01DX001 (ip), vehicle: saline
[2] = dose: 200.0 mg/kg/injection, schedule: Q01DX001 (ip), vehicle: saline
[3] = dose: 400.0 mg/kg/injection, schedule: Q01DX001 (ip), vehicle: saline
[4] = dose: 100.0 mg/kg/injection, schedule: Q04DX003 (ip), vehicle: Klucel (hydroxypropylcellulose) (HPC)
[5] = dose: 200.0 mg/kg/injection, schedule: Q04DX003 (ip), vehicle: Klucel (hydroxypropylcellulose) (HPC)
[6] = dose: 400.0 mg/kg/injection, schedule: Q04DX003 (ip), vehicle: Klucel (hydroxypropylcellulose) (HPC)
[7] = dose: 100.0 mg/kg/injection, schedule: Q04DX003 (ip), vehicle: saline with Tween-80
[8] = dose: 200.0 mg/kg/injection, schedule: Q04DX003 (ip), vehicle: saline with Tween-80
[9] = dose: 400.0 mg/kg/injection, schedule: Q04DX003 (ip), vehicle: saline with Tween-80

Measured: T/C

COc1ccc(C2(OC)Oc3ccccc3C(=O)C2(O)OC)cc1OC (stereo not drawn)
inactive: dose: 50.0 mg/kg/injection, schedule: Q01DX001 (ip), vehicle: saline 105 % of control | [1] 103 % of control | [2] 100 % of control | [3] 97 % of control

c1ccc(CC(c2ccccc2)(c2ccccc2)c2ccccc2)cc1
inactive: dose: 25.6 mg/kg/injection, schedule: Q04DX002 (ip), vehicle: saline with Tween-80 89 % of control | dose: 64.0 mg/kg/injection, schedule: Q04DX002 (ip), vehicle: saline with Tween-80 93 % of control | dose: 160.0 mg/kg/injection, schedule: Q04DX002 (ip), vehicle: saline with Tween-80 93 % of control | dose: 400.0 mg/kg/injection, schedule: Q04DX002 (ip), vehicle: saline with Tween-80 112 % of control

CCCC(=O)Oc1ccc(C(C)(C)CC(C)(C)C)cc1
inactive: [1] 94 % of control | [2] 98 % of control | [3] 100 % of control

O=C1c2cccc(NCCO)c2C(=O)c2c(NCCO)cccc21
inactive: [4] 94 % of control | [5] 102 % of control | [6] 94 % of control

Cc1n(C)c(=O)c2ccccc2[n+]1C
inactive: dose: 100.0 mg/kg/injection, schedule: Q01DX001 (ip), vehicle: Klucel (hydroxypropylcellulose) (HPC) 106 % of control | dose: 200.0 mg/kg/injection, schedule: Q01DX001 (ip), vehicle: Klucel (hydroxypropylcellulose) (HPC) 87 % of control | dose: 400.0 mg/kg/injection, schedule: Q01DX001 (ip), vehicle: Klucel (hydroxypropylcellulose) (HPC) 97 % of control

O=C(C=C(C(F)(F)F)C(F)(F)F)c1ccc(Cl)c2ccccc12
inactive: dose: 12.5 mg/kg/injection, schedule: Q01DX009 (ip), vehicle: saline with Tween-80 94 % of control | dose: 25.0 mg/kg/injection, schedule: Q01DX009 (ip), vehicle: saline with Tween-80 92 % of control | dose: 25.0 mg/kg/injection, schedule: Q04DX003 (ip), vehicle: saline with Tween-80 107 % of control | dose: 50.0 mg/kg/injection, schedule: Q04DX003 (ip), vehicle: saline with Tween-80 90 % of control

CC(=O)Nc1cc(NC(C)=O)c2nc(CN(C)c3ccc(C(=O)O)cc3)cnc2n1
inactive: dose: 100.0 mg/kg/injection, schedule: Q01DX001 (ip), vehicle: other 101 % of control | dose: 200.0 mg/kg/injection, schedule: Q01DX001 (ip), vehicle: other 98 % of control | dose: 400.0 mg/kg/injection, schedule: Q01DX001 (ip), vehicle: other 97 % of control

Cn1c2ccccc2c2cc[n+]3c(c21)CCCC3
inactive: dose: 5.0 mg/kg/injection, schedule: Q01DX001 (ip), vehicle: saline 108 % of control | dose: 10.0 mg/kg/injection, schedule: Q01DX001 (ip), vehicle: saline 108 % of control | dose: 20.0 mg/kg/injection, schedule: Q01DX001 (ip), vehicle: saline 115 % of control | dose: 40.0 mg/kg/injection, schedule: Q01DX001 (ip), vehicle: saline 115 % of control

C(=C\c1ccccc1)/C[n+]1cccc2ccccc21
inactive: dose: 75.0 mg/kg/injection, schedule: Q01DX001 (ip), vehicle: saline 89 % of control

CNC(=O)C1C(c2ccccc2)C1c1ccccc1 (stereo not drawn)
inactive: dose: 100.0 mg/kg/injection, schedule: Q04DX002 (ip), vehicle: Klucel (hydroxypropylcellulose) (HPC) 102 % of control | dose: 200.0 mg/kg/injection, schedule: Q04DX002 (ip), vehicle: Klucel (hydroxypropylcellulose) (HPC) 97 % of control | dose: 400.0 mg/kg/injection, schedule: Q04DX002 (ip), vehicle: Klucel (hydroxypropylcellulose) (HPC) 94 % of control

Oc1c(CN2CCOCC2)cc(CN2CCOCC2)cc1CN1CCOCC1
inactive: [1] 116 % of control | dose: 100.0 mg/kg/injection, schedule: Q01DX009 (ip), vehicle: saline 95 % of control | [7] 104 % of control | [2] 98 % of control | dose: 200.0 mg/kg/injection, schedule: Q01DX009 (ip), vehicle: saline 90 % of control | [8] 95 % of control | [3] 96 % of control | dose: 400.0 mg/kg/injection, schedule: Q01DX009 (ip), vehicle: saline 100 % of control | [9] 98 % of control

CC(=O)C1CC(CC(=O)O)C1(C)C (stereo not drawn)
inactive: dose: 50.0 mg/kg/injection, schedule: Q01DX009 (ip), vehicle: Klucel (hydroxypropylcellulose) (HPC) 95 % of control | dose: 100.0 mg/kg/injection, schedule: Q01DX009 (ip), vehicle: Klucel (hydroxypropylcellulose) (HPC) 100 % of control | [4] 101 % of control | dose: 200.0 mg/kg/injection, schedule: Q01DX009 (ip), vehicle: Klucel (hydroxypropylcellulose) (HPC) 97 % of control | [5] 101 % of control | [6] 97 % of control

CC(=O)Oc1cc([N+](=O)[O-])ccc1C(=O)O
inactive: [7] 96 % of control | [8] 91 % of control | [9] 94 % of control

Nc1cccc(CCCCc2ccc(S(=O)(=O)F)cc2)c1
inactive: [1] 101 % of control | [2] 95 % of control | [3] 98 % of control

CC(=O)N(C)NC(=O)c1ccccn1
inactive: dose: 12.5 mg/kg/injection, schedule: Q01DX009 (ip), vehicle: water 103 % of control | dose: 25.0 mg/kg/injection, schedule: Q01DX009 (ip), vehicle: water 103 % of control | dose: 50.0 mg/kg/injection, schedule: Q01DX009 (ip), vehicle: water 105 % of control

COc1cc([N+](=O)[O-])c2c(ccc[n+]2C)c1OC
inactive: [7] 98 % of control | [8] 89 % of control
